According to patent US20240158446A1, “CYCLIC COMPOUND HAVING SELECTIVE INHIBITORY ACTION ON KRAS OVER HRAS AND NRAS” (CHUGAI SEIYAKU KABUSHIKI KAISHA, priority 2021, published 2024):
pKd: −log10 of the molar value. Like-named read-outs stand apart in the source and are kept apart here. *1 amine or outer side, *2 acyl side, *3 side chain or, on linkers, in order; H or OH if unused. Where a SMILES comes first, the peptide text is derived from it. Bridges are numbered along the chain shown (N, C = ends). [ ]: non-standard residue; d: D form. The star is where a group is joined. hPhe(3-Cl-4-CF3) = N[C@@H](CCc1ccc(C(F)(F)F)c(Cl)c1)C(=O)O; NPrPhe(4-CF3) = CCCN[C@@H](Cc1ccc(C(F)(F)F)cc1)C(=O)O; NEtPhe(4-CF3) = CCN[C@@H](Cc1ccc(C(F)(F)F)cc1)C(=O)O; X7 = CCN([C@H](C(=O)[*:2])C1CCCC1)[*:1]; NMeGly(cPent) = CN[C@H](C(=O)O)C1CCCC1; Pro(4,4-F2) = O=C(O)[C@@H]1CC(F)(F)CN1; Hyp = O=C(O)[C@@H]1C[C@@H](O)CN1; NMeD = CN[C@@H](CC(=O)O)C(=O)O; NMeL = CN[C@@H](CC(C)C)C(=O)O; Ac6c = NC1(C(=O)O)CCCCC1; Morpholide = C1CN(*)CCO1; NMeA = CN[C@@H](C)C(=O)O; Ac5c = NC1(C(=O)O)CCCC1; Aze = O=C(O)[C@@H]1CCN1; Ac4c = NC1(C(=O)O)CCC1; Sar = CNCC(=O)O

Columns and labels:
[1] = target: GDP-bound KRAS wild-type protein (Homo sapiens, UniProt P01116); assay: Binding to KRAS by surface plasmon resonance (SPR), Single Cycle Kinetics; settings: GDP-bound KRAS wild-type protein, read-out: KRAS KD
Sequence of GDP-bound KRAS wild-type protein (P01116 whole entry): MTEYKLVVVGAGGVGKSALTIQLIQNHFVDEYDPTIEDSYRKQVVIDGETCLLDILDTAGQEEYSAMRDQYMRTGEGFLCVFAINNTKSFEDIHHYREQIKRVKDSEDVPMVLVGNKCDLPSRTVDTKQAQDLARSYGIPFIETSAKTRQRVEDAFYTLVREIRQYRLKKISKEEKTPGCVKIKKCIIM

[2] = target: GDP-bound NRAS wild-type protein (Homo sapiens, UniProt P01111); assay: Binding to NRAS by surface plasmon resonance (SPR), Single Cycle Kinetics; settings: SPR, GDP-bound NRAS wild-type protein vs GDP-bound KRAS wild-type protein
Sequence of GDP-bound NRAS wild-type protein (P01111 whole entry): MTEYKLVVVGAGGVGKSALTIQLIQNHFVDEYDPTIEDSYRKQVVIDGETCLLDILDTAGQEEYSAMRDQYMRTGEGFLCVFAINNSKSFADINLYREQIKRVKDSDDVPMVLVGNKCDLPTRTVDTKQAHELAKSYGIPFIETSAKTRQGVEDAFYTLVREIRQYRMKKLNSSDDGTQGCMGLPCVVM

[3] = target: GDP-bound HRAS wild-type protein (Homo sapiens, UniProt P01112); assay: Binding to HRAS by surface plasmon resonance (SPR), Single Cycle Kinetics; settings: SPR, GDP-bound HRAS wild-type protein vs GDP-bound KRAS wild-type protein
Sequence of GDP-bound HRAS wild-type protein (P01112 whole entry): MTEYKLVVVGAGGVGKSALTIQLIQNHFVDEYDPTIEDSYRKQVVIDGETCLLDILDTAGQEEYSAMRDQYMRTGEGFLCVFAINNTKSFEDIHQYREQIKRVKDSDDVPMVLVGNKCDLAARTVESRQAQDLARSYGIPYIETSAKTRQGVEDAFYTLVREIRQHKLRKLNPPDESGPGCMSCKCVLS

[4] = SPR Single Cycle Kinetics, 1:1 binding model

SMILES	pKd [1, 4]	NRAS/KRAS (ratio of KD value with respect to NRAS to KD value with respect to KRAS) [2]	HRAS/KRAS (ratio of KD value with respect to HRAS to KD value with respect to KRAS) [3]	NRAS/KRAS (ratio of KD value for NRAS to KD value for KRAS) [2]	HRAS/KRAS (ratio of KD value for HRAS to KD value for KRAS) [3]	pKd ([1]; SPR, Single Cycle Kinetics)
CC[C@H](C)[C@@H]1NC(=O)[C@H](CC)N(C)C(=O)C[C@@H](C(=O)N(C)C)N(C)C(=O)[C@H](C2CCCC2)N(C)C(=O)C2(CCC2)NC(=O)[C@@H]2C[C@H](N3CCC(F)(F)CC3)CN2C(=O)[C@H](CCc2cc(F)c(C(F)(F)F)c(F)c2)NC(=O)CN(C)C(=O)[C@H](Cc2ccc(C(F)(F)F)cc2)N2CCCC[C@@H](C2=O)N(C)C(=O)CN(C)C1=O [PP0732]	10.41	C (A compound having a KD ratio of 0.1 or more and less than 3 is denoted as C)	B (a compound having 3 or more and less than 10 is denoted as B)			
CC[C@H](C)[C@@H]1NC(=O)[C@H](CC(C)C)N(C)C(=O)C[C@@H](C(=O)N2CCOCC2)N(C)C(=O)[C@H](C2CCCC2)N(C)C(=O)C2(CCCC2)NC(=O)[C@@H]2CCCN2C(=O)[C@H](CCc2cc(F)c(C(F)(F)F)c(F)c2)NC(=O)CN(C)C(=O)[C@H](Cc2ccc(C(F)(F)F)cc2)N2CCCC[C@@H](C2=O)N(C)C(=O)[C@H](C)NC1=O [PP0543]	9.00	B (a compound having 3 or more and less than 10 is denoted as B)	B (a compound having 3 or more and less than 10 is denoted as B)			
CCCN1C(=O)CN(C)C(=O)CNC(=O)[C@H]([C@@H](C)CC)NC(=O)[C@H](CC(C)C)N(C)C(=O)C[C@@H](C(=O)N(C)C)NC(=O)[C@H](C2CCCC2)N(C)C(=O)C2(CCC2)NC(=O)[C@@H]2CC(F)(F)CN2C(=O)[C@H](CCc2ccc(C(F)(F)F)c(Cl)c2)NC(=O)CN(C)C(=O)[C@@H]1Cc1ccc(C(F)(F)F)cc1 [PP0364] ([NMeL]IG[Sar][NPrPhe(4-CF3)][Sar][hPhe(3-Cl-4-CF3)][Pro(4,4-F2)][Ac4c][NMeGly(cPent)]D-NMe2; lactam N-11)	9.11			B (a compound having 3 or more and less than 10 is denoted as B)	B (a compound having 3 or more and less than 10 is denoted as B)	
CCC[C@H]1C(=O)N[C@@H]([C@@H](C)CC)C(=O)N(C)CC(=O)N(C)[C@H]2C/C=C\CCN(C2=O)[C@@H](Cc2ccc(C(F)(F)F)cc2)C(=O)N(C)CC(=O)N[C@@H](CCc2ccc(C(F)(F)F)c(Cl)c2)C(=O)N2C[C@H](OCC)C[C@H]2C(=O)NC2(CC(C)(C)C2)C(=O)N(C)[C@@H]([C@@H](C)CC)C(=O)N(C)[C@H](C(=O)N(C)C)CC(=O)N1C [PP2973]				A (a compound having 10 or more and less than 20 is denoted as A)	A (a compound having 10 or more and less than 20 is denoted as A)	9.74
CCCN1C(=O)[C@@H]2CCN2C(=O)CN(C)C(=O)[C@H]([C@@H](C)CC)NC(=O)[C@H](CC(C)C)N(C)C(=O)C[C@@H](C(=O)N2CCOCC2)NC(=O)[C@H](C2CCCC2)N(C)C(=O)C2(CCCC2)NC(=O)[C@@H]2C[C@@H](OCC)CN2C(=O)[C@H](CCc2ccc(C(F)(F)F)c(Cl)c2)NC(=O)CN(C)C(=O)[C@@H]1Cc1ccc(C(F)(F)F)cc1 [PP0353] ([NMeL]I[Sar][Aze][NPrPhe(4-CF3)][Sar][hPhe(3-Cl-4-CF3)][Hyp](Et)[Ac5c][NMeGly(cPent)]D-Morpholide; lactam N-11)	9.33			C (A compound having a KD ratio of 0.1 or more and less than 3 is denoted as C)	B (a compound having 3 or more and less than 10 is denoted as B)	
CCCN1C(=O)CN(C)C(=O)CN(C)C(=O)[C@H]([C@@H](C)CC)NC(=O)[C@H](CC(C)C)N(C)C(=O)C[C@@H](C(=O)N2CCOCC2)N(C)C(=O)[C@H](C2CCCC2)N(C)C(=O)C2(CCCC2)NC(=O)[C@@H]2CC(F)(F)CN2C(=O)[C@H](CCc2ccc(C(F)(F)F)c(Cl)c2)NC(=O)CN(C)C(=O)[C@@H]1Cc1ccc(C(F)(F)F)cc1 [PP0195] ([NMeL]I[Sar][Sar][NPrPhe(4-CF3)][Sar][hPhe(3-Cl-4-CF3)][Pro(4,4-F2)][Ac5c][NMeGly(cPent)][NMeD]-Morpholide; lactam N-11)	10.04			B (a compound having 3 or more and less than 10 is denoted as B)	C (A compound having a KD ratio of 0.1 or more and less than 3 is denoted as C)	
CC[C@H](C)[C@@H]1NC(=O)[C@H](CC(C)C)N(C)C(=O)C[C@@H](C(=O)N2CCOCC2)N(C)C(=O)[C@H](C2CCCC2)N(C)C(=O)C2(CCCC2)NC(=O)[C@@H]2CCCN2C(=O)[C@H](CCc2ccc(C(F)(F)F)c(Cl)c2)NC(=O)CN(C)C(=O)[C@H](C2CCCC2)N(CC)C(=O)CN(C)C(=O)CN(C)C1=O [PP0024] ([NMeL]I[Sar][Sar][X7][Sar][hPhe(3-Cl-4-CF3)]P[Ac5c][NMeGly(cPent)][NMeD]-Morpholide; lactam N-11)	8.23			B (a compound having 3 or more and less than 10 is denoted as B)	C (A compound having a KD ratio of 0.1 or more and less than 3 is denoted as C)	
CC[C@H](C)[C@@H]1NC(=O)[C@H](CC(C)C)N(C)C(=O)C[C@@H](C(=O)N2CCOCC2)N(C)C(=O)[C@H](C2CCCC2)N(C)C(=O)C2(CCCCC2)NC(=O)[C@@H]2CCCN2C(=O)[C@H](CCc2ccc(C(F)(F)F)c(Cl)c2)NC(=O)CN(C)C(=O)[C@H](Cc2ccc(C(F)(F)F)cc2)N(CC)C(=O)[C@@H]2CCN2C(=O)[C@H](C)N(C)C1=O [PP0222] ([NMeL]I[NMeA][Aze][NEtPhe(4-CF3)][Sar][hPhe(3-Cl-4-CF3)]P[Ac6c][NMeGly(cPent)][NMeD]-Morpholide; lactam N-11)	9.24			C (A compound having a KD ratio of 0.1 or more and less than 3 is denoted as C)	C (A compound having a KD ratio of 0.1 or more and less than 3 is denoted as C)	
CCO[C@@H]1C[C@H]2C(=O)NC3(CC(C)(C)C3)C(=O)N(C)[C@@H](C(CC)CC)C(=O)N(C)[C@H](C(=O)N(C)C)CC(=O)N(C)[C@@H](CC)C(=O)N[C@@H]([C@@H](C)CC)C(=O)N(C)CC(=O)N(C)[C@H]3C/C=C\CCN(C3=O)[C@@H](Cc3ccc(C(F)(F)F)cc3)C(=O)N(C)CC(=O)N[C@@H](CCc3ccc(C(F)(F)F)c(OC)c3)C(=O)N2C1 [PP2066]				A (a compound having 10 or more and less than 20 is denoted as A)	B (a compound having 3 or more and less than 10 is denoted as B)	9.60
CC[C@H](C)[C@@H]1NC(=O)[C@H](CC(C)C)N(C)C(=O)C[C@@H](C(=O)N2CCOCC2)N(C)C(=O)[C@H](C2CCCC2)N(C)C(=O)C2(CCCC2)NC(=O)[C@@H]2CCCN2C(=O)[C@H](CCc2cc(F)c(C(F)(F)F)c(F)c2)NC(=O)CN(C)C(=O)[C@H](Cc2ccc(C(F)(F)F)cc2)N2CCCC[C@@H](C2=O)N(C)C(=O)[C@@H]2CCCN2C1=O [PP0547]	9.44	B (a compound having 3 or more and less than 10 is denoted as B)	B (a compound having 3 or more and less than 10 is denoted as B)			
